Among the data in ChEMBL document CHEMBL2046305, “Discovery of selective menaquinone biosynthesis inhibitors against Mycobacterium tuberculosis” (J Med Chem, 2012) are MIC values, retold here.

In the assay the test system is Mycobacterium tuberculosis. As to the kind of experiment: Antibacterial activity against Mycobacterium bovis BCG by microplate alamar blue assay. It counts as functional. As to conditions: variant bovis BCG.

Values after ≈ are worked out from the molar mass of the structure shown.

In turn, `CCCCCC[C@H](CN1CCC(COc2cccc(C(=O)c3ccc(Cl)cc3)c2)CC1)OC(N)=O` registered an MIC of 3 µg/mL (≈ 5.99 µM).
As for `CCCCCC[C@H](CN1CCC(COc2cccc(/C(=N\OC)c3ccc(Cl)cc3)c2)CC1)OC(N)=O`, the MIC stood at 2.95 µg/mL (≈ 5.56 µM).
